According to patent publication US20240400559A1, “SOLID STATE EMITTERS BASED ON PYRIDINIUM SCAFFOLDS” (Council of Scientific and Industrial Research, priority 2021, published 2024):

Assay: Solution state photophysical studies (absorption, emission, lifetime) in DMSO
Assay type: physicochemical
Details: in DMSO at RT; for λmax (abs.) / λmax (em.): 10 μM; for λmax (em.): under UV light (λexc=365 nm)
Procedure: For solution state photophysical studies (absorption, emission and lifetime) stock for all compounds (1 mM concentration) were prepared in DMSO solvent. For the measurement, the required volume was added from the stock solution in 1 mL solution to make it final concentration as 10 μM. For aggregation induced emission (AIE) measurement, different ratio of DCM-Hexane solvent mixture (0-99%) was prepared by adding required volume of DCM and Hexane, subsequently measurements were performed by maintaining 10 μM dye concentration in each 1 mL solution.
The AIE images were taken in 5 ml vials which were placed on a handled UV (excitation wavelength 365 nm) instrument. For the solid-state absorption and emission measurements, powder samples were prepared by dissolving compound and BaSO4 in DCM and then evaporated to dryness. Solution Spectra were measured in HORIBA Jobin Yvon Fluorolog using 1 cm path length quartz cuvette. To make the powder more homogenous, mixtures were grinded effectively for few minutes.

SMILES | Lifetime | Rel. QY | Stokes shift | λmax (abs.) | λmax (em.)
COc1ccc(-c2cccc3c4ccccc4cc(-c4cccc5ccccc45)[n+]23)cc1.O=S(=O)([O-])C(F)(F)F [2aa, 4-(4-methoxyphenyl)-6-(naphthalen-1-yl)pyrido[2,1-a]isoquinolin-5-ium trifluoromethanesulfonate] | 4.09 ns | 0.062 | 143 nm | 397 nm | 540 nm
COc1ccc(-c2cccc3c4cc(C)cc(C)c4cc(-c4ccccc4)[n+]23)cc1.O=S(=O)([O-])C(F)(F)F [2t, 4-(4-methoxyphenyl)-8.10-dimethyl-6-phenylpyrido[2,1-a]isoquinolin-5-ium trifluoro methanesulfonate] | 4.49 ns | 0.024 | 132 nm | 410 nm | 542 nm
COc1ccc(-c2cccc3c4ccccc4cc(-c4cc(OC)cc(OC)c4)[n+]23)cc1.O=S(=O)([O-])C(F)(F)F [2y, 6-(3,5-dimethoxyphenyl)-4-(4-methoxyphenyl)pyrido[2,1-a]isoquinolin-5-ium trifluoromethanesulfonate] | 5.72 ns | 0.006 | 139 nm | 401 nm | 540 nm
COc1ccc(-c2cccc3c4cc(C)ccc4cc(-c4ccccc4)[n+]23)cc1.O=S(=O)([O-])C(F)(F)F [2m, 4-(4-methoxyphenyl)-10-methyl-6-phenylpyrido[2,1-a]isoquinolin-5-ium trifluoro methanesulfonate] | 3.6 ns | 0.020 | 131 nm | 409 nm | 540 nm
COc1ccc(-c2cccc3c4ccc(C)cc4cc(-c4ccccc4)[n+]23)cc1.O=S(=O)([O-])C(F)(F)F [2r, 4-(4-methoxyphenyl)-9-methyl-6-phenylpyrido[2,1-a]isoquinolin-5-ium trifluoro methanesulfonate] | 5.93 ns | 0.017 | 133 nm | 405 nm | 538 nm
COc1ccc(-c2cccc3c4cc(-c5cccc6ccccc56)ccc4cc(-c4ccccc4)[n+]23)cc1.O=S(=O)([O-])C(F)(F)F [2p, 4-(4-methoxyphenyl)-10-(naphthalen-1-yl)-6-phenylpyrido[2,1-a]isoquinolin-5-ium trifluoromethanesulfonate] | 3.38 ns | 0.032 | 140 nm | 412 nm | 552 nm
O=S(=O)([O-])C(F)(F)F.c1ccc(-c2cc3ccccc3c3cccc(-c4cc5ccccc5c5ccccc45)[n+]23)cc1 [2j, 4-(phenanthren-9-yl)-6-phenylpyrido[2,1-a]isoquinolin-5-ium trifluoromethane sulfonate] | 5.19 ns | 0.220 | 147 nm | 397 nm | 544 nm
COc1ccc(-c2cccc3c4cc(OC)cc(OC)c4cc(-c4ccccc4)[n+]23)cc1.O=S(=O)([O-])C(F)(F)F [2u, 8,10-dimethoxy-4-(4-methoxyphenyl)-6-phenylpyrido[2,1-a]isoquinolin-5-ium trifluoromethanesulfonate] | 4.2 ns | 0.125 | 172 nm | 430 nm | 602 nm
COc1ccc(-c2cccc3c4cc(-c5ccccc5)ccc4cc(-c4ccccc4)[n+]23)cc1.O=S(=O)([O-])C(F)(F)F [2o, 4-(4-methoxyphenyl)-6,10-diphenylpyrido[2,1-a]isoquinolin-5-ium trifluoro methanesulfonate] | 3.72 ns | 0.036 | 129 nm | 417 nm | 546 nm
COc1ccc(-c2cccc3c4ccccc4cc(-c4ccccc4)[n+]23)cc1.O=S(=O)([O-])C(F)(F)F [2f, 4-(4-methoxyphenyl)-6-phenylpyrido[2,1-a]isoquinolin-5-ium trifluoromethane sulfonate] | 5.32 ns | 0.018 | 136 nm | 404 nm | 540 nm
O=S(=O)([O-])C(F)(F)F.c1ccc(-c2cccc3c4ccccc4cc(-c4ccccc4)[n+]23)cc1 [2a, 4,6-diphenylpyrido[2,1-a]isoquinolin-5-ium trifluoromethanesulfonate] | 5.84 ns | 0.015 | 116 nm | 392 nm | 508 nm
